One assay deals with T1, human GLP1 receptor (Homo sapiens, UniProt P43220).
T1 construct: expressed in transfected cells; host or cells: HEK cells, BacMam virus transduction
Description: cAMP accumulation assay, functional agonism of human GLP1 receptor. Type of assay: cell-based. Conditions: HEK cells infected with human GLP1 receptor BacMam virus, HTRF cAMP; for Emax: HEK293, read-out: Human GLP-1R agonist cAMP Emax; for EC50: read-out: Human GLP-1R agonist cAMP pEC50 (converted). The protocol:
(§1) CAMP production upon agonist stimulation of human GLP2 or GLP1 receptor was assessed utilizing HiRange cAMP kit (Cisbio). In brief, HEK cells were infected with either human GLP2 or GLP1 receptor BacMam virus for 24 hours and frozen for later use in the assay. […] Cells were prepared in the assay buffer (HBSS (Lonza) supplemented with 0.5 mM IBMX (Tocris)). After 45 min incubation at 37° C., the reaction was stopped by addition of the HTRF detection reagents in the lysis buffer provided in the kit.
A general note: Changes in cAMP serve as a functional read-out for many G protein-coupled receptors.

The target in a further assay is T2, human GLP2 receptor (Homo sapiens, UniProt O95838).
T2 construct: expressed in transfected cells; host or cells: HEK cells, BacMam virus transduction
T2 sequence (O95838 1-553): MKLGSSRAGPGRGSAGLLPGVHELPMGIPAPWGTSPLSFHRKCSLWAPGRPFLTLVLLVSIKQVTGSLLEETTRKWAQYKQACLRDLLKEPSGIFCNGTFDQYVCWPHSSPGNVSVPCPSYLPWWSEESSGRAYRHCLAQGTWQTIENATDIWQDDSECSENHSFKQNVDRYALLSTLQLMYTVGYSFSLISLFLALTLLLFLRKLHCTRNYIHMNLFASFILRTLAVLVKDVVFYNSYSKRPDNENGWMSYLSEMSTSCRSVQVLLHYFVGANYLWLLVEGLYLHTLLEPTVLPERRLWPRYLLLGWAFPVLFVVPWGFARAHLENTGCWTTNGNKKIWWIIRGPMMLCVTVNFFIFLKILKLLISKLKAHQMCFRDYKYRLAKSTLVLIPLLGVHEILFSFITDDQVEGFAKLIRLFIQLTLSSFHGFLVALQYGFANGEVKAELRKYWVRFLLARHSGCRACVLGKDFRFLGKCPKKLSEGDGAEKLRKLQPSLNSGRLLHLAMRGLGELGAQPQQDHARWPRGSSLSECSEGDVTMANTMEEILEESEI
Description: cAMP accumulation assay, functional agonism of human GLP2 receptor. The class given is cell-based. The following applies: HEK cells infected with human GLP2 receptor BacMam virus, HTRF cAMP; for Emax: HEK293, read-out: Human GLP-2R agonist cAMP Emax; for EC50: read-out: Human GLP-2R agonist cAMP pEC50 (converted). The protocol: as §1

Positions of bridges follow the written chain, without caps; N, C: chain ends. Non-standard residues stand in square brackets, D forms with d. Residues, ends and D or L forms follow the SMILES beside them. *: point of attachment. Malonyl(2,2-Me2,histaminyl) = CC(C)(C(=O)NCCc1cnc[nH]1)C(=O)*; αMeL = CC(C)C[C@](C)(N)C(=O)O; Nle = CCCC[C@H](N)C(=O)O; Aib = CC(C)(N)C(=O)O

T1 sequence (P43220 24-463): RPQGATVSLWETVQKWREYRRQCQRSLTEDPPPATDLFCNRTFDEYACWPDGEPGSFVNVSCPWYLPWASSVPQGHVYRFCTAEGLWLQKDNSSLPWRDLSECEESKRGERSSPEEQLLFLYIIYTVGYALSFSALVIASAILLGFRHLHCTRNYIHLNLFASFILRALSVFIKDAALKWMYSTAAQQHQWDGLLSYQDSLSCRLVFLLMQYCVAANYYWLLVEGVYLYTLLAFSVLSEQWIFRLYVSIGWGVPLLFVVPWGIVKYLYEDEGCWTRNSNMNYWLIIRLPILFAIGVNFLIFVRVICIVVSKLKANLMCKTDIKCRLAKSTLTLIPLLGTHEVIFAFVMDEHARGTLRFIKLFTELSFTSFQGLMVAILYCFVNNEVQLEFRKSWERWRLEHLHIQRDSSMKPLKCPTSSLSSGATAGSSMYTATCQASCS

With `CCCC[C@H](NC(=O)[C@H](CCC(=O)O)NC(=O)[C@@H]1CC(=O)NCCCC[C@H](NC(=O)[C@H](CCC(N)=O)NC(=O)C(C)(C)NC(=O)[C@@H](N)Cc2c[nH]cn2)C(=O)N[C@@H](CO)C(=O)N[C@@H](Cc2ccccc2)C(=O)N[C@@H](CO)C(=O)N1)C(=O)N[C@H](Cc1ccccc1)C(=O)N[C@H](C(=O)N[C@@](C)(CC(C)C)C(=O)N[C@@H](CC(C)C)C(=O)N[C@@H](CC(=O)O)C(=O)N[C@H]1CCC(=O)NCCCC[C@@H](C(=O)N[C@@H](CC(=O)O)C(=O)N[C@@H](Cc2ccccc2)C(=O)N[C@H](C(=O)N[C@H]2CCC(=O)NCCCC[C@@H](C(=O)N[C@H]3CCC(=O)NCCCC[C@@H](C(N)=O)NC(=O)[C@H]([C@@H](C)O)NC(=O)[C@H]([C@@H](C)CC)NC(=O)[C@H](CCCCN)NC3=O)NC(=O)[C@H]([C@@H](C)CC)NC(=O)[C@H](CC(C)C)NC(=O)[C@H](Cc3c[nH]c4ccccc34)NC2=O)[C@@H](C)CC)NC(=O)[C@H](C)NC(=O)[C@H](C)NC(=O)[C@H](CCCCN)NC1=O)[C@@H](C)O` [Example 63] (H-H[Aib]QKSFSDE[Nle][dF]T[αMeL]LDEKAAKDFIEWLIKEKITK-NH2; lactam 4-8, 16-20, 24-28, 29-33 (inferred); C-terminus assumed), the values for the Emax on human GLP1 receptor and at human GLP2 receptor were 96.9% and 99.7%, respectively. The EC50 on human GLP1 receptor was 1 nM; at human GLP2 receptor, 0.1 nM.
On the same counts, the results for `CCCC[C@H](NC(=O)[C@H](CCC(=O)O)NC(=O)[C@@H]1CC(=O)NCCCC[C@H](NC(=O)[C@H](CC(=O)O)NC(=O)C(C)(C)C(=O)NCCc2c[nH]cn2)C(=O)N[C@@H](CO)C(=O)N[C@@H](Cc2ccccc2)C(=O)N[C@@H](CO)C(=O)N1)C(=O)N[C@H](Cc1ccccc1)C(=O)N[C@H](C(=O)N[C@@](C)(CC(C)C)C(=O)N[C@@H](CC(C)C)C(=O)N[C@@H](CC(=O)O)C(=O)N[C@H]1CCC(=O)NCCCC[C@@H](C(=O)N[C@@H](CC(=O)O)C(=O)N[C@@H](Cc2ccccc2)C(=O)N[C@H](C(=O)N[C@H]2CCC(=O)NCCCC[C@@H](C(=O)N[C@H]3CCC(=O)NCCCC[C@@H](C(N)=O)NC(=O)[C@H]([C@@H](C)O)NC(=O)[C@H]([C@@H](C)CC)NC(=O)[C@H](CCCCN)NC3=O)NC(=O)[C@H]([C@@H](C)CC)NC(=O)[C@H](CC(C)C)NC(=O)[C@H](Cc3c[nH]c4ccccc34)NC2=O)[C@@H](C)CC)NC(=O)[C@H](C)NC(=O)[C@H](C)NC(=O)[C@H](CCCCN)NC1=O)[C@@H](C)O` [Example 68] ({Malonyl(2,2-Me2,histaminyl)}-DKSFSDE[Nle][dF]T[αMeL]LDEKAAKDFIEWLIKEKITK-NH2; lactam 2-6, 14-18, 22-26, 27-31 (inferred); C-terminus assumed) are 94%, 103%, 0.316 nM and 0.0794 nM.
On the same counts, the results for `CCCC[C@H](NC(=O)[C@H](CCC(=O)O)NC(=O)[C@@H]1CC(=O)NCCCC[C@H](NC(=O)[C@H](CCC(N)=O)NC(=O)C(C)(C)C(=O)NCCc2c[nH]cn2)C(=O)N[C@@H](CO)C(=O)N[C@@H](Cc2ccccc2)C(=O)N[C@@H](CO)C(=O)N1)C(=O)N[C@H](Cc1ccccc1)C(=O)N[C@H](C(=O)N[C@@](C)(CC(C)C)C(=O)N[C@@H](CC(C)C)C(=O)N[C@@H](CC(=O)O)C(=O)N[C@H]1CCC(=O)NCCCC[C@@H](C(=O)N[C@@H](CC(=O)O)C(=O)N[C@@H](Cc2ccccc2)C(=O)N[C@H](C(=O)N[C@H]2CCC(=O)NCCCC[C@@H](C(=O)N[C@H]3CCC(=O)NCCCC[C@@H](C(N)=O)NC(=O)[C@H]([C@@H](C)O)NC(=O)[C@H]([C@@H](C)CC)NC(=O)[C@H](CCCCN)NC3=O)NC(=O)[C@H]([C@@H](C)CC)NC(=O)[C@H](CC(C)C)NC(=O)[C@H](Cc3c[nH]c4ccccc34)NC2=O)[C@@H](C)CC)NC(=O)[C@H](C)NC(=O)[C@H](C)NC(=O)[C@H](CCCCN)NC1=O)[C@@H](C)O` [Example 69] ({Malonyl(2,2-Me2,histaminyl)}-QKSFSDE[Nle][dF]T[αMeL]LDEKAAKDFIEWLIKEKITK-NH2; lactam 2-6, 14-18, 22-26, 27-31 (inferred); C-terminus assumed) are 83.7%, 95%, 6.31 nM and 0.501 nM.

Broadly, the Emax is the size of the effect at its maximum, as opposed to the concentration needed.

(Values after patent US20240270809A1, “ORAL GLP RECEPTOR AGONISTS” (priority 2020, published 2024).)
